What follows are compounds tested against T1, pancreatic cholesterol esterase (Sus scrofa, UniProt A0A286ZKB1) (assay: p-NPB hydrolysis by porcine pancreatic cholesterol esterase, absorbance at […] nm, with taurocholic acid).
T1 construct: gene CEL
T1 sequence (A0A286ZKB1 96-682): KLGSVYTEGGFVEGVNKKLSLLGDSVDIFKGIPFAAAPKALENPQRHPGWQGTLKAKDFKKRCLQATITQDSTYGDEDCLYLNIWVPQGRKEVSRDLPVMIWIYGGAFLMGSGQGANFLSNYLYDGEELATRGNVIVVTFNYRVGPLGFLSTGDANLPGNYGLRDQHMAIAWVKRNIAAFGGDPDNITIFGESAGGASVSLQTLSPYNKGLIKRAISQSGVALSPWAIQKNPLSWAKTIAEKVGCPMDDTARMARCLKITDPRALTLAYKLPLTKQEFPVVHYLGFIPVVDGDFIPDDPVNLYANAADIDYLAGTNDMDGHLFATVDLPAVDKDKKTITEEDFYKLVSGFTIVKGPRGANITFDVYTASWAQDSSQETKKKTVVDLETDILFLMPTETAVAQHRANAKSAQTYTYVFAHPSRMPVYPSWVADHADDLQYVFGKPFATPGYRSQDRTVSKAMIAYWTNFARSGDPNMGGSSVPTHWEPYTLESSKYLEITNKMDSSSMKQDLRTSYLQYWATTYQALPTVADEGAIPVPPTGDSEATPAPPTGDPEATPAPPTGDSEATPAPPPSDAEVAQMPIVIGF
Format: biochemical

SMILES | IC50 [µM]
Oc1cc(O)c2c(c1)OC(c1ccc(O)c(O)c1)C(O)C2 (single isomer, unassigned; (+)) [(+)-Catechin] | > 345
Oc1cc(O)c2c(c1)O[C@H](c1ccc(O)c(O)c1)[C@H](O)C2 [(–)-epicatechin] | > 345
O=C(O)c1cc(O)c(O)c(O)c1 [gallic acid] | > 588
